# Experiments:
# Format in all cases: in vivo
# [1] = test system: adult spider mites (Tetranychuscinnabarinus); assay: Test against adult spider mite, greenhouse spray on bean leaves; details: after 72 h
# Experimental: The adult spider mites (Tetranychuscinnabarinus) were put into two true leaves of bean plants. After the number of mites were investigated, the solution of certain concentrations of test compounds was sprayed by using a sprinkler. Three replicates were set for each treatment. Then the leaves were maintained in standard observation room. After 72 h the survival mites in each leaf were observed, and mortality of the mites was determined.
# [2] = test system: egg of spider mite (Tetranychuscinnabarinus); assay: Test against egg of spider mite, greenhouse spray; details: eggs, 5 days
# Experimental: Two true leaves of bean plants were taken and one true leaf was removed. Then ten healthy female adult spider mites were put into the true leaf. The adult spider mites were removed after 24 h and the eggs were investigated. The solution of certain concentrations of test compounds was sprayed by using a sprinkler. Three replicates were set for each treatment. The untreated eggs were all incubated after 5 days. The unincubation of treated eggs in leaf was observed, and incubation inhibition rate of the eggs was determined.
# [3] = test system: citrus red mite (Panonychuscitri); assay: Field trial against citrus red mite (Jiangxi, China); details: orange orchard
# Experimental: The trial was carried out in a 2-year-old Shatang orange orchard in Ganzhou city Jiangxi province, trifoliate orange trees were selected as stocks, the intervals between two plants was 1.50×2.50 m, the average height was 1.45 m and the crown width was 1.30 m. Two trees were selected in each plot, with random arrangement and 4 replications. Compound 1 (10% SC) was set at three different doses (100 mg/L, 50 mg/L and 25 mg/L), spirodiclofen (29% SC) was set at one dose (50 mg/L), and pyridaben (20% EC) was set at one dose (100 mg/L). MatabiSupergreen 16 Knapsack Sprayer 16 Liter was used to spray evenly with 2 L of spraying volume for each plant. The plants were treated once in May at that time, adults, nymphs, eggs of citrus red mite all existed, with adults/eggs=1/1.2. During the day the plants were treated, and the weather was good with the average temperature at 24° C. The first three days after treatment were all clear days. The number of mites was investigated before treatment and on the 1st, 3rd, 7th, 14th, 22nd and 28th day after treatment respectively. Two trees of each plot were investigated according to the five directions of the tree crown (east, south, west, north and central), 5 leaves in each direction were investigated to calculate the number of living mites, with 50 leaves each plot. The decline rate of mite population and corrected efficacy were calculated according to formulas below: The decline rate of mite population (%)=[(the average number of mite on each leaf before treatment−the average number of mite on each leaf after treatment)/the average number of mite on each leaf before treatment]×100. Corrected efficacy (%)=[(the decline rate of mite population in treated area−the decline rate of mite population in untreated area)/(100−the decline rate of mite population in untreated area)]×100.
# [4] = test system: deutonymph of spider mite (Tetranychuscinnabarinus); assay: Test against deutonymph of spider mite, greenhouse spray; details: after 72 h
# Experimental: Ten healthy female adult spider mites (Tetranychuscinnabarinus) were put into two true leaves of bean plants. The adult spider mites were removed after 24 h and the eggs were to be continued incubating. After ten days, the number of deutonymph were investigated and recorded. The solution of certain concentrations of test compounds was sprayed by using a sprinkler. Three replicates were set for each treatment. Then the deutonymph of spider mites were maintained in standard observation room. After 72 h, the survival mites in each leaf were observed, and mortality of the mites was determined.
# [5] = test system: spider mites; assay: Test of systemic activity against spider mite through root absorption; details: root absorption 24 h, mites on bean leaves, after 72 h
# Experimental: The high acaricidal compound 1 were dissolved in acetone, and then diluted with 0.1% aqueous solution of Tween 80 to form test solution in different concentration. Three replicates were set for each treatment. Water is blank control. The 10 ml compound 1 solution was added into the tube. Two true leaves bean plants were taken and the soil in the root was removed. The bean plant was dipped into the test solution in different concentration. After absorbing 24 h, 30 to 50 spider mites were put onto the true leaves. Then the bean plants were maintained in observation room at 25±1° C. After 72 h, the death and survival mites in each leaf was observed, the mortality of the mites and systemic activity was determined.
# [6] = 50 mg/L, the 1st day after treatment
# [7] = 50 mg/L, the 3rd day after treatment
# [8] = 50 mg/L, the 7th day after treatment
# [9] = 50 mg/L, the 14th day after treatment
# [10] = 50 mg/L, the 22nd day after treatment
# [11] = 50 mg/L, the 28th day after treatment
# [12] = 100 mg/L, the 1st day after treatment
# [13] = 100 mg/L, the 3rd day after treatment
# [14] = 100 mg/L, the 7th day after treatment
# [15] = 100 mg/L, the 14th day after treatment
# [16] = 100 mg/L, the 22nd day after treatment
# [17] = 100 mg/L, the 28th day after treatment
structure (smiles),measurement,setting,value
Cc1cc(F)c(-c2cc([S+]([O-])CC(F)(F)F)c(C)cc2F)cc1[S+]([O-])CC(F)(F)F (centres unmarked) [Compound 3],Mortality (%),[1]; 100 mg/L,100%
"CCC(C)(C)C(=O)OC1=C(c2ccc(Cl)cc2Cl)C(=O)OC12CCCCC2 [spirodiclofen, reference compound]",Incubation inhibition rate (%),[2]; 0.25 mg/L,13%
same,Incubation inhibition rate (%),[2]; 1 mg/L,37%
same,Incubation inhibition rate (%),[2]; 5 mg/L,100%
same,Corrected efficacy (%),[3]; [6],20%
same,Corrected efficacy (%),[3]; [7],48%
same,Corrected efficacy (%),[3]; [8],63%
same,Corrected efficacy (%),[3]; [9],80%
same,Corrected efficacy (%),[3]; [10],71%
same,Corrected efficacy (%),[3]; [11],70%
"CC(C)(C)c1ccc(CSc2cnn(C(C)(C)C)c(=O)c2Cl)cc1 [pyridaben, reference compound]",Corrected efficacy (%),[3]; [12],0%
same,Corrected efficacy (%),[3]; [13],65%
same,Corrected efficacy (%),[3]; [14],90%
same,Corrected efficacy (%),[3]; [15],93%
same,Corrected efficacy (%),[3]; [16],92%
same,Corrected efficacy (%),[3]; [17],95%
same,Mortality (%),[4]; 0.25 mg/L,25%
same,Mortality (%),[4]; 0.5 mg/L,60%
same,Mortality (%),[4]; 1 mg/L,84%
Cc1cc(F)c(-c2cc(SCC(F)F)c(C)cc2F)cc1SCC(F)F [Compound 62],Mortality (%),[1]; 100 mg/L,100%
Cc1cc(F)c(-c2cc([S+]([O-])CC(F)F)c(C)cc2F)cc1SCC(F)F (centres unmarked) [Compound 63],Mortality (%),[1]; 100 mg/L,100%
Cc1cc(F)c(-c2cc(SCC(F)(F)F)c(C)cc2F)cc1SCC(F)(F)F [Compound 1],Incubation inhibition rate (%),[2]; 0.25 mg/L,18%
same,Incubation inhibition rate (%),[2]; 1 mg/L,34%
same,Incubation inhibition rate (%),[2]; 5 mg/L,100%
same,Mortality (%),[5]; 50 mg/L,80%
same,Mortality (%),[5]; 200 mg/L,88%
same,Mortality (%),[1]; 5 mg/L,100%
same,Mortality (%),[1]; 100 mg/L,100%
same,Corrected efficacy (%),"[3]; 25 mg/L, the 1st day after treatment",9%
same,Corrected efficacy (%),"[3]; 25 mg/L, the 3rd day after treatment",53%
same,Corrected efficacy (%),"[3]; 25 mg/L, the 7th day after treatment",74%
same,Corrected efficacy (%),"[3]; 25 mg/L, the 14th day after treatment",77%
same,Corrected efficacy (%),"[3]; 25 mg/L, the 22nd day after treatment",75%
same,Corrected efficacy (%),"[3]; 25 mg/L, the 28th day after treatment",73%
same,Corrected efficacy (%),[3]; [6],18%
same,Corrected efficacy (%),[3]; [7],87%
same,Corrected efficacy (%),[3]; [8],92%
same,Corrected efficacy (%),[3]; [9],91%
same,Corrected efficacy (%),[3]; [10],92%
same,Corrected efficacy (%),[3]; [11],92%
same,Corrected efficacy (%),[3]; [12],25%
same,Corrected efficacy (%),[3]; [13],89%
same,Corrected efficacy (%),[3]; [14],97%
same,Corrected efficacy (%),[3]; [15],99%
same,Corrected efficacy (%),[3]; [16],99%
same,Corrected efficacy (%),[3]; [17],98%
same,Mortality (%),[4]; 0.25 mg/L,64%
same,Mortality (%),[4]; 0.5 mg/L,97%
same,Mortality (%),[4]; 1 mg/L,100%
Cc1cc(F)c(-c2cc([S+]([O-])CC(F)(F)F)c(C)cc2F)cc1SCC(F)(F)F (centres unmarked) [Compound 2],Mortality (%),[1]; 100 mg/L,100%

# Source: US9856212B1, “Biphenyl compounds and applications thereof” (Shenyang Sinochem Agrochemicals R&D Co., Ltd., priority 2017, dated 2018)
